Data published in ChEMBL document CHEMBL1136749, “Central neural tumor destruction by controlled release of a synthetic glycoside dispersed in a biodegradable polymeric matrix” (J Med Chem, 2003).

System: U373 MG
Assay: Antimitotic activity against human glioma line U-373 cell by measuring the incorporation of [3H]thymidine in cultures of the cells
Type: functional, cell-based, U-373MG ATCC

CCCCCCCCO[C@H]1O[C@@H](COCC(CO)(CO)CO)[C@@H](O)[C@H](O)[C@@H]1NC(C)=O was tested, and the IC50 was 43 µM.
